Results published in patent US20040072180A1, “Dna binding peptide domains and a method for providing domains of this type” (priority 2000, published 2004).

Test system: yeast strain YM 4271 transformed with pHISi3xE2Fwt
Experiment: Growth of pHISi3xE2Fwt-transformed yeast colonies on histidine-free minimal medium agar with increasing 3-aminotriazole
Format: cell-based
Conditions: no histidine
Protocol: 1 μg of pHISi3xE2Fwt was completely linearized with 10 U of XhoI for 1 hour, purified using the QiaQuick PCR Purification Kit (Qiagen/Hilden, Germany) according to the manufacturer's instructions and taken up in 50 μl of water. […] This culture was incubated with shaking at 30° C. until an optical density of 0.4-0.6 at 600 nm was reached. The culture was then removed by centrifugation at 1000× g for 5 minutes, and the cells were taken up in 1.5 ml of 100 mM lithium acetate pH 7.5, 10 mM Tris-HCl pH 7.5, 1 mM EDTA. 100 μl of said cells, 50 μl of the linearized plasmid and 100 μg of heat-denatured salmon sperm DNA were admixed with 600 μl of a PEG/LiAc solution (100 mM lithium acetate pH 7.5, 10 mM Tris-HCl pH 7.5, 1 mM EDTA, 40% (w/v) polyethylene glycol 4000) and incubated with shaking at 30° C. for 30 min. After adding 70 μl of dimethyl sulfoxide, the mixture was incubated at 42° C. for 15 min. The cells were subsequently removed by centrifugation, washed in 1 ml of 10 mM Tris-HCl pH 7.5, 1 mM EDTA and plated out in their entirety on a minimal medium agar plate without addition of histidine, on which 12 colonies had grown after 7 days at 30° C.

SMILES: Nc1nc[nH]n1 [3-aminotriazole]
- 3-AT concentration at which growth was completely suppressed (one clone (yeast3xE2Fwt)): 2 mM
- 3-AT concentration at which growth was suppressed markedly (one clone (yeast3xE2Fwt)): 0.5 mM
- 3-AT concentration at which growth was inhibited (remaining 10 clones): > 30 mM
- 3-AT concentration at which clones did not grow any more (this clone and another clone): 3 mM
